Literature values in patent US5849733A, “2-thio or 2-oxo flavopiridol analogs” (Bristol-Myers Squibb Co., priority 1997, dated 1998).

Test system: apoptosis
Settings: J. Cell Sci., 108, 2897 (1995)

Cn1cnc2c(NCc3ccccc3)nc(NCCO)nc21 [olomucine]
synergy with known cytotoxic agents in inducing apoptosis: act synergistically with known cytotoxic agents in inducing apoptosis
